Laboratory results published in patent US11021445B2, “Carboxylic acid derivative as AT2R receptor antagonist” (SHANDONG DANHONG PHARMACEUTICAL CO., LTD., priority 2017, dated 2021).

Test: Two-way permeability study in Caco-2 cells
Format: in vitro ADME
Settings: human; for efflux ratio at 120 min: pH 7.4; for Papp A→B at 120 min: pH 7.4, A-B direction; for Papp B→A at 120 min: pH 7.4, B-A direction
Experimental: The two-way permeability of the to-be-tested compound in Caco-2 cells was measured, and whether the to-be-tested compound was transported by efflux or not was tested.
The compound is dissolved in dimethyl sulfoxide (DMSO) or other suitable solvent to prepare a stock solution of the appropriate concentration.
A suitable internal standard (IS) is dissolved in acetonitrile (ACN) or other organic solvent to be used as a stop solution. The specific information will be described in the research report.
Nadolol, metoprolol, digoxin, estrone 3-sulfate potassium (E3S) and GF120918 were used as a hypotonic control compound, a hypertonic control compound, a P-glycoprotein (P-gp) substrate, a breast cancer resistance protein (BCRP) substrate, and an efflux transporter inhibitor in this study. Stock solutions of these compounds are prepared with DMSO and stored at ≤−30° C., and used within 6 months.
In this study, HBSS (Hanks Balanced Salt Solution) containing 10 mM HEPES (2-[4-(2-hydroxyethyl)-1-piperazine]ethanesulfonic acid) was used as a transport buffer (pH 7.40*0.05).
Caco-2 cells were cultured in an MEM medium (Minimum Essential Media) under the conditions of 37±1° C., 5% CO2 and saturated humidity. The cells were then seeded in a Corning Transwell-96 well plate at a density of 1×10^5 cells/cm^2, and then the cells were placed in a carbon dioxide incubator for culture for 21-28 days for transport experiments. The medium was changed once every 5-6 days during culture.
Compounds were administered at concentrations of 2, 10 and 100 μM and were administered in both directions (A-B and B-A directions) with or without 10 μM GF120918, and there are three parallels for each administration concentration. Digoxin and E3S were tested at the concentration of 10 μM and 5 μM, respectively, and administered bidirectionally with or without 10 μM GF120918. The test concentrations of nadolol and metoprolol were 2 μM, and nadolol and metoprolol were administered unidirectionally (the A-B direction) without 10 μM GF120918. The three control compounds were also made in three parallels.
The administration solution, receiving solution and transport buffer were pre-incubated for 30 minutes at 37° C. The cell layer was rinsed twice with the transport buffer. The administration solution and the receiving solution were separately added to the corresponding cell plate wells (75 μL and 250 μL, respectively, for each of the top and base end wells). After sampling, the cell plates were incubated for 120 minutes in an incubator at 37±1° C., 5% CO2 and saturated humidity.
After all the compounds were subjected to vortex oscillation, the compounds after vortex oscillation were centrifuged at 3220×g, and 20° C. for 20 minutes, the appropriate volume of the supernatant was transferred to a sample analysis plate, and after the plate was sealed, the compounds were stored at 2-8° C. if the compounds were not immediately analyzed. The analysis was carried out by the method of LC/MS/MS, and the specific compound treatment method is shown in the research report.
The Lucifer Yellow Rejection Assay was used to test the integrity of Caco-2 cells. Six cell wells were randomly selected from each cell plate, and 100 μM Lucifer Yellow was added respectively. The Lucifer Yellow Rejection Assay and the transport experiment were performed simultaneously. After 120 minutes of incubation, a Lucifer Yellow sample was taken and the relative fluorescence unit (RFU) of the Lucifer Yellow in the sample was detected at a 425/528 nm (excitation/emission) spectrum.
The concentrations of the to-be-tested compound and the control compounds nadolol, metoprolol, digoxin and E3S in the samples were determined by liquid chromatography-tandem mass spectrometry (LC/MS/MS). The retention time of the analyte and internal standard, chromatogram acquisition and chromatogram integration were processed by using the software Analyst (AB Sciex, Framingham, Mass., USA).

Compound | efflux ratio at 120 min | Papp A→B at 120 min [×10⁻⁶ cm/s] | Papp B→A at 120 min [×10⁻⁶ cm/s]
COc1ccc2c(c1OCc1ccccc1)C[C@@H](C(=O)O)N(C(=O)[C@@H](OC1CCCC1)c1ccccc1)C2 [Compound 37] | 32.5 | 0.27 | 8.68
COc1ccc2c(c1OCc1ccccc1)C[C@@H](C(=O)O)N(C(=O)C(c1ccccc1)c1ccccc1)C2 [EMA-401, reference compound] | – | 0.11 | 6.4
COc1ccc2c(c1OCc1ccccc1)C[C@@H](C(=O)O)N(C(=O)[C@@H](OC1(C)CCCC1)c1ccccc1)C2 [Compound 57] | 26.3 | 0.67 | 17.7
O=C(O)[C@@H]1Cc2c(ccc(Cl)c2OCc2ccccc2)CN1C(=O)[C@@H](OC1CCCC1)c1ccccc1 [Compound 107] | 13.1 | 0.48 | 6.24
